# PMC5854701 (Scientific Reports, 2018)
# Legend:
# [1] = test system: multiple strains of influenza A and B viruses; assay: microbe, parasite or virus in culture; type: cell-based
# [2] = test system: A/WSN/33 (H1N1)
# [3] = test system: influenza B virus B/Wisconsin/1/2010 (Yamagata); assay: in vitro; conditions: dog, MDCK
# [4] = test system: influenza B virus B/Brisbane/60/2008 (Victoria); assay: in vitro; conditions: dog, MDCK
# [5] = in vitro; conditions: dog
# [6] = test system: A/WSN/33 (H1N1); remark: listed apart in the source
# [7] = test system: A/California/07/2009 (H1N1)
# [8] = test system: A/Denmark/524/2009 (H1N1)
# [9] = test system: A/Texas/04/2009 (H1N1)
# [10] = test system: A/Washington/29/2009 (H1N1)
# [11] = test system: B/Wisconsin/1/2010 (Yamagata)
# [12] = test system: B/Brisbane/60/2008 (Victoria)
# [13] = test system: A/Switzerland/9715293/2013 (H3N2)
# [14] = test system: A/Denmark/528/2009 (H1N1)
# [15] = test system: B/Memphis/20/1996 (Yamagata)
# [16] = test system: B/Utah/09/2014 (Yamagata)
# [17] = test system: B/Phuket/3073/2013 (Yamagata)
# [18] = test system: influenza B virus B/Memphis/20/1996 (Yamagata); assay: in vitro; conditions: dog, MDCK
# [19] = test system: influenza B virus B/Utah/09/2014 (Yamagata); assay: in vitro; conditions: dog, MDCK
# [20] = test system: influenza B virus B/Phuket/3073/2013 (Yamagata); assay: in vitro; conditions: dog, MDCK
# [21] = in vitro; conditions: human
molecule,measurement,setting,value
"O=c1[nH]c2ccccc2n1C1CCN(C(CCc2ccccc2)c2nnnn2-c2ccc3c(c2)OCCO3)CC1 (stereo not drawn) [Compound 5, 1‐(1‐{1‐[1‐(2,3‐dihydro‐1,4‐benzodioxin‐6‐yl)‐1,2,3,4‐tetrazol‐5‐yl]‐3‐phenylpropyl}piperidin‐4‐ yl)‐3 H‐1,3‐benzodiazol‐2‐one]",EC50 values against panel of influenza A and B viruses,[1],single to submicromolar
same,% plaque formation at 5 µM,[2],16.5 ± 1.2%
same,selectivity ratio,[3],19.3
same,selectivity ratio,[4],17.4
same,CC50,[5],17.4 ± 1.2 µM
"O=c1[nH]c2ccccc2n1C1CCN(C(c2ccc(-c3ccccc3)cc2)c2nnnn2-c2ccc3c(c2)OCCO3)CC1 (stereo not drawn) [Compound 9 f, 1‐[1‐({[1,1′‐biphenyl]‐4‐yl}[1‐(2,3‐dihydro‐1,4‐benzodioxin‐6‐yl)‐1 H‐1,2,3,4‐tetrazol‐5‐yl]methyl)piperidin‐4‐yl]‐2,3‐dihydro‐1 H‐1,3‐benzodiazol‐2‐one]",antiviral activity in plaque assay (in words),[2],not active
"CCc1ccc(C(c2nnnn2-c2ccc3c(c2)OCCO3)N2CCC(n3c(=O)[nH]c4ccccc43)CC2)cc1 (stereo not drawn) [Compound 9 g, 1‐(1‐{[1‐(2,3‐dihydro‐1,4‐benzodioxin‐6‐yl)‐1 H‐1,2,3,4‐tetrazol‐5‐yl](4‐ethylphenyl)methyl}piperidin‐4‐yl)‐2,3‐dihydro‐1 H‐1,3‐benzodiazol‐2‐one]",antiviral activity in plaque assay (in words),[2],moderate antiviral activity
"O=c1[nH]c2ccccc2n1C1CCN(C(c2ccncc2)c2nnnn2-c2ccc3c(c2)OCCO3)CC1 (stereo not drawn) [Compound 9 h, 1‐(1‐{[1‐(2,3‐dihydro-1,4-benzodioxin-6-yl)-1 H-1,2,3,4-tetrazol-5-yl](pyridin-4-yl)methyl}piperidin-4-yl)-2,3-dihydro-1 H-1,3-benzodiazol-2-one]",antiviral activity in plaque assay (in words),[2],moderate antiviral activity
"O=c1[nH]c2ccccc2n1C1CCN(C(c2ccccc2OC(F)(F)F)c2nnnn2Cc2ccccc2)CC1 (stereo not drawn) [Compound 9 u, 1‐{1‐[(1‐benzyl‐1 H‐1,2,3,4‐tetrazol‐5‐yl)[2‐(trifluoromethoxy)phenyl]methyl]piperidin‐4‐yl}‐2,3‐dihydro‐1 H‐1,3‐benzodiazol‐2‐one]",% plaque formation at 5 µM,[2],22.7 ± 2.2%
"CCC(c1nnnn1-c1ccc2c(c1)OCCO2)N1CCC(n2c(=O)[nH]c3ccccc32)CC1 (stereo not drawn) [Compound 9d, 1‐(1‐{1‐[1‐(2,3‐dihydro‐1,4‐benzodioxin‐6‐yl)‐1 H‐1,2,3,4‐tetrazol‐5‐yl]propyl}piperidin‐4‐yl)‐2,3‐dihydro‐1 H‐1,3‐benzodiazol‐2‐one]",antiviral activity in plaque assay (in words),[2],moderate antiviral activity
"O=c1[nH]c2ccccc2n1C1CCN(C(Cc2ccccc2)c2nnnn2-c2ccc3c(c2)OCCO3)CC1 (stereo not drawn) [Compound 9e, 1‐(1‐{1‐[1‐(2,3‐dihydro‐1,4‐benzodioxin‐6‐yl)‐1 H‐1,2,3,4‐tetrazol‐5‐yl]‐2‐phenylethyl}piperidin‐4‐yl)‐2,3‐dihydro‐1 H‐1,3‐benzodiazol‐2‐one]",antiviral activity in plaque assay (in words),[2],moderate antiviral activity
"CC(C)c1ccc(C(c2nnnn2-c2ccc3c(c2)OCCO3)N2CCC(n3c(=O)[nH]c4ccccc43)CC2)cc1 (stereo not drawn) [Compound 9j, 1‐(1‐{[1‐(2,3‐dihydro‐1,4‐benzodioxin‐6‐yl)‐1 H‐1,2,3,4‐tetrazol‐5‐yl][4‐(propan‐2‐yl)phenyl]methyl}piperidin‐4‐yl)‐2,3‐dihydro‐1 H‐1,3‐benzodiazol‐2‐one]",antiviral activity in plaque assay (in words),[2],not active
"O=c1[nH]c2ccccc2n1C1CCN(C(c2ccsc2)c2nnnn2Cc2ccccc2)CC1 (stereo not drawn) [Compound 9p, 1‐{1‐[(1‐benzyl‐1 H‐1,2,3,4‐tetrazol‐5‐yl)(thiophen‐3‐yl)methyl]piperidin‐4‐yl}‐2,3‐dihydro‐1 H‐1,3‐benzodiazol‐2‐one]",% plaque formation at 5 µM,[2],12.3 ± 2.1%
"C[C@@H](c1ccccc1)n1nnnc1[C@H](c1ccsc1)N1CCC(n2c(=O)[nH]c3ccccc32)CC1 [Compound 12a, 1‐{1‐[(S)‐{1‐[(1 S)‐1‐phenylethyl]‐1 H‐1,2,3,4‐tetrazol‐5‐yl}(thiophen‐3‐yl)methyl]piperidin‐4‐yl}‐2,3‐dihydro‐1 H‐1,3‐benzodiazol‐2‐one]",effect of pre-treatment of cells on viral replication,[6],little to no effect on viral replication
same,efficacy when added at later stages of viral replication,[6],gradually decreased
same,EC50,"[1]; […], read-out: EC50 values against panel of influenza A and B viruses",0.6 to 2.7 µM
same,"SI (selectivity index), A549",[2],>214.3/140.1
same,"SI (selectivity index), A549",[7],>115.4/75.5
same,"SI (selectivity index), A549",[8],>187.5/122.6
same,"SI (selectivity index), A549",[9],>136.4/89.2
same,"SI (selectivity index), A549",[10],>166.7/109.0
same,"SI (selectivity index), A549",[11],>187.5/122.6
same,"SI (selectivity index), A549",[12],>250/163.5
same,"SI (selectivity index), A549",[13],>107.1/70.1
same,"SI (selectivity index), A549",[14],>166.7/109.0
same,"SI (selectivity index), A549",[15],>55.6/36.3
same,"SI (selectivity index), A549",[16],>100/65.4
same,"SI (selectivity index), A549",[17],>125/81.8
same,selectivity ratio,[3],> 188
same,selectivity ratio,[4],> 250
same,selectivity ratio,[18],> 55.6
same,selectivity ratio,[19],> 100
same,selectivity ratio,[20],> 125
same,CC50,[5],> 150 µM
same,CC50,[21],98.1 ± 2.5 µM
"C[C@@H](c1ccccc1)n1nnnc1[C@@H](c1ccsc1)N1CCC(n2c(=O)[nH]c3ccccc32)CC1 [Compound 12b, 1‐{1‐[(R)‐{1‐[(1 S)‐1‐phenylethyl]‐1 H‐1,2,3,4‐tetrazol‐5‐yl}(thiophen‐3‐yl)methyl]piperidin‐4‐yl}‐2,3‐dihydro‐1 H‐1,3‐benzodiazol‐2‐one]",antiviral activity in plaque assay (in words),[2],not active
"Cc1onc(-c2ccccc2)c1C(=O)N1CCN(c2ccc([N+](=O)[O-])cc2Cl)CC1 [Nucleozin, reference compound]",% plaque formation,[2],0%
Oseltamivir carboxylate [reference compound],antiviral activity when added 8 h post viral infection,[6],retained potent antiviral activity
same,% plaque formation,[2],11.1 ± 2.1%
